Experiment: 13C NMR peak width at half-height (PWHH) and relative PWHH of sucrose peaks, Example 1
Assay type: physicochemical
Details: for PWHH, three lots mean, Average: average of the twelve 13C peaks
Experimental: In Example 1, ^13C NMR was performed on three (3) samples (e.g 3 lots) of a comparator iron sucrose drug product having an equivalent concentration of 20 mg base/mL, and three (3) samples (e.g 3 lots) of a tested iron sucrose drug product having an equivalent concentration of 20 mg base/mL were analyzed by ^13C NMR in Example 1. The comparator product was Venofer® having an equivalent concentration of 20 mg base/mL. In addition, ^13C NMR was also performed on 3 samples (e.g. 3 lots) of free sucrose sample. Free sucrose is sucrose only with no iron.
The average PWHH of the 3 lots of the comparator iron sucrose drug product is identified as w in Tables 1 and 2. The average PWHH of the 3 lots of the tested iron sucrose drug productis identified as w in Tables 1 and 2. The average PWHH of the 3 lots of sucrose only sample is identified as w0 in Tables 1 and 2.
In addition to PWHH, a RPWHH is another characterization method disclosed herein. […] As provided in Table 1, the RPWHH averaged among the twelve (12) C peaks and the 3 lots for: (i) w1/wo is 8.5 f 1.0, and (ii) w2/wo is 7.9±1.1.

PWHH, three lots mean (13C Peak No. 1, 106.0 ppm, Fructose, Carbon Atom No. 8): 10.6 ppb | PWHH, three lots mean (13C Peak No. 2, 95.0 ppm, Glucose, Carbon Atom No. 1): 14.7 ppb | PWHH, three lots mean (13C Peak No. 3, 84.0 ppm, Fructose, Carbon Atom No. 11): 13.4 ppb | PWHH, three lots mean (13C Peak No. 4, 79.0 ppm, Fructose, Carbon Atom No. 9): 16.3 ppb | PWHH, three lots mean (13C Peak No. 5, 76.0 ppm, Fructose, Carbon Atom No. 10): 15.8 ppb | PWHH, three lots mean (13C Peak No. 6, 75.4 ppm, Glucose, Carbon Atom No. 3): 14.3 ppb | PWHH, three lots mean (13C Peak No. 7, 75.2 ppm, Glucose, Carbon Atom No. 5): 14.9 ppb | PWHH, three lots mean (13C Peak No. 8, 73.9 ppm, Glucose, Carbon Atom No. 2): 15.7 ppb | PWHH, three lots mean (13C Peak No. 9, 72.0 ppm, Glucose, Carbon Atom No. 4): 13.7 ppb | PWHH, three lots mean (13C Peak No. 10, 65.2 ppm, Fructose, Carbon Atom No. 7): 16.2 ppb | PWHH, three lots mean (13C Peak No. 11, 64.1 ppm, Fructose, Carbon Atom No. 12): 17.6 ppb | PWHH, three lots mean (13C Peak No. 12, 62.9 ppm, Glucose, Carbon Atom No. 6): 17.2 ppb | PWHH, three lots mean, Average: 15.0 ppb | PWHH, three lots mean, Average (listed as w0): 15±2 ppb
SMILES: OC[C@H]1O[C@@](CO)(O[C@H]2O[C@H](CO)[C@@H](O)[C@H](O)[C@H]2O)[C@@H](O)[C@@H]1O [Sucrose Only, sucrose]
